Drawing on patent US20220304943A1, “FLOWABLE CANNABINOID COMPOSITIONS HAVING HIGH EFFECTIVE CONCENTRATIONS” (Canopy Growth Corporation, priority 2019, published 2022), this text covers saturation concentration for two compounds.

This data set is described as follows: Saturation concentration of CBDA and CBD. Format: physicochemical. The source says:
A cannabinoid composition comprising a 2:1 mixture of cannabidiolic acid (CBDA) and cannabidiol (CBD) and only minor amounts of other products provides a non-limiting illustration of how a cannabinoid incipient can be utilized to increase the in actio concentration of a target cannabinoid without increasing the in situ concentration of the target cannabinoid above its saturation concentration. […] In other words, under at least some vape-device related conditions, CBD solutions comprising greater than about 50 wt. % CBD may suffer from reduced flowability within a vape device. As such, high effective CBD concentrations appear untenable based on conventional strategies. However, the experimental results set out herein also indicate that: (i) the saturation concentration of CBDA under similar circumstances is considerably higher than that of CBD; (ii) CBDA can be converted to CBD under the conditions associated with cannabinoid vapourization (e.g. the formation of a cannabinoid-based vapour or aerosol); and (iii) including CBDA in an in situ composition can increase the saturation concentration of CBD. Accordingly, as evidenced by the results set out in the present disclosure, CBDA can be utilized as an incipient—it can increase the in actio concentration of CBD without increasing the in situ concentration of CBD above its saturation concentration. […] In this respect, the present disclosure provides access to flowable cannabinoid compositions having high effective concentrations.
FIG. 1 illustrates this with a schematic phase diagram 100 for a cannabinoid composition in accordance with the present disclosure that comprises CBDA and CBD. […] In FIG. 1, the saturation concentration of CBDA and CBD are identified with reference numbers 102 and 104, respectively, and they delineate a “potentially flowable zone” 106 from a “non-flowable zone” 108. […] This is indicated schematically in FIG. 1 with arrow 110. […]

Setting [1] is: ethanol solutions under standard temperature and pressure conditions, CBD derived from an isolate.

`C=C(C)[C@@H]1CCC(C)=C[C@H]1c1c(O)cc(CCCCC)c(C(=O)O)c1O` [CBDA, cannabidiolic acid]: under setting [1], the saturation concentration entry was “about 70 wt. %”.

Take `C=C(C)[C@@H]1CCC(C)=C[C@H]1c1c(O)cc(CCCCC)cc1O` [CBD, cannabidiol]: the saturation concentration result under setting [1] is reported as “about 50 wt. %” and the saturation concentration entry (under at least some vape-device related conditions) was “about 50 wt. %”.
